Results from patent publication US20240294543A1, “CYCLOHEPTA-THIENO-DIAZEPINE DERIVATIVES AS GABA A GAMMA1 PAM” (Hoffmann-La Roche Inc., priority 2021, published 2024).
Read-outs that look alike come from different tables or passages of the source.

Columns and labels:
[1] = target: human GABAA α1β3γ2 receptor (Homo sapiens (Human), UniProt P14867+P18507); assay: Radioligand binding assay, competition for [3H]Flumazenil, γ2-containing GABAA subtypes; conditions: for γ2/γ1 Selectivity Ratio: Ki α1β3γ2 (nM)/Ki α2β2γ1 (nM); for LogSel: Log[Ki α1β3γ2 (nM)/Ki α2β2γ1 (nM)]
Method in brief: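 Competition against [3H]Flumazenil binding in HEK293F cells transiently expressing human α1β3γ2 receptors, pellets resuspended in mannitol buffer pH 7,2-7,4. Incubated to equilibrium 1 hour at 4° C, filtered and washed with ice-cold 50 mM Tris pH 7.5, bound radioactivity by liquid scintillation counting. Ki values are means of two determinations.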

[2] = target: human GABAA α2β2γ1 receptor (Homo sapiens (Human), UniProt P47869+Q8N1C3); assay: Radioligand binding assay, competition for [3H]RO7239181, γ1-containing GABAA subtypes
h-GABA-A α2β2γ1 = h-GABA-A α2β2γ1 (Homo sapiens (Human), UniProt P47869+Q8N1C3); assay: Two-electrode voltage clamp electrophysiology in Xenopus oocytes expressing GABAA receptors; format: cell-based; conditions: for Efficacy (GABA) %: % modulation of GABA EC20 = 100*(Fold increase−1), compound at about 30-fold its Ki α2β2γ1; for Fold increase h-GABA-A α2β2γ1 oocyte @ 30-fold Ki: Xenopus oocytes, GABA EC20, compound at about 30-fold its Ki α2β2γ1
Experimental: Xenopus Oocytes Preparation Xenopus laevis oocytes at maturation stages V-VI were used for the expression of cloned mRNA encoding GABAA receptor subunits. Oocytes ready for RNA micro-injection were bought from Ecocyte, Castrop-Rauxel, Germany and stored in modified Barth's medium (composition in mM: NaCl 88, KCl 1, NaHCO3 2.4, HEPES 10, MgSO4 0.82, CaNO3 0.33, CaCl2 0.33, pH=7.5) at 20° C. until the experiment.
Oocytes were plated in 96-well plates for microinjection using the Roboinject automated instrument (MultiChannelSystems, Reutlingen, Germany). Approximately 50 nL of an aqueous solution containing the RNA transcripts for the subunits of the desired GABAA receptor subtype was injected into each oocyte. […] Oocytes were kept in modified Barth's medium (composition in mM: NaCl 88, KCl 1, NaHCO3 […], HEPES 10, MgSO4 0.82, CaNO3 0.33, CaCl2 0.33, pH=7.5) at 20° C. until the experiment.
Electrophysiological experiments were performed using the Roboocyte instrument (MultiChannelSystems, Reutlingen, Germany) on days 3 to 5 after the micro-injection of mRNA. During the experiment the oocytes were constantly superfused by a solution containing (in mM) NaCl 90, KCl 1, HEPES 5, MgCl2 1, CaCl2 1 (pH 7.4). Oocytes were impaled by two glass microelectrodes (resistance: 0.5-0.8 MQ) which were filled with a solution containing KCl 1M+K-acetate 1.5 M and voltage-clamped to −80 mV. The recordings were performed at room temperature using the Roboocyte two-electrode voltage clamp system (Multichannelsystem). After an initial equilibration period of 1.5 min GABA was added for 1.5 min at a concentration evoking approximately 20% of a maximal current response (EC20). After another rest interval of 2.5 min GABA was again added evoking a response of similar amplitude and shape. […] Current traces were recorded at a digitization rate of 10 Hz during and shortly before and after the GABA application.
Each compound and concentration was tested on at least 3 oocytes. Different oocytes were used for different compound concentrations.
For the analysis, the digitized current traces of the first and second GABA response were superimposed and, if necessary, rescaled to equal maximal amplitudes. The ratio between the two responses during the time interval of test compound application was calculated point by point. The extremum of the resulting “ratio trace” was taken as the efficacy (“Fold increase”) of the compound expressed as “% modulation of GABA EC20” (100*(Fold increase−1)).

[3] = Ki h-GABAA α2β2γ1, membranes of HEK293F cells, [3H]RO7239181 20-30 nM, Table 1
[4] = Ki h-GABAA α2β2γ1, membranes of HEK293F cells, [3H]RO7239181 20-30 nM, Table 2
[5] = HEK293F cells, [3H]Flumazenil 1 nM, Table 1, read-out: Ki h-GABAA α1β3γ2

SMILES | Ki [1] [nM] | γ2/γ1 Selectivity Ratio ([1]; Table 1) | LogSel ([1]; Table 1) | Ki [2, 3] [nM] | Ki [2, 4] [nM] | Efficacy (GABA) % (h-GABA-A α2β2γ1) [%] | Fold increase h-GABA-A α2β2γ1 oocyte @ 30-fold Ki (h-GABA-A α2β2γ1) | γ2/γ1 Selectivity Ratio ([1]; Table 3) | LogSel ([1]; Table 3) | Ki ([1]; read-out: Ki h-GABAA α1β3γ2, Table 3, reference compounds and examples) [nM] | Ki ([2]; Ki h-GABAA α2β2γ1, Table 3, reference compounds and examples) [nM] | Ki [1, 5] [nM]
C[C@@H]1N=C(c2c(F)cccc2F)c2c(sc3c2CCCCC3)-n2c(-c3cccnn3)nnc21 [Example 4, (7S)-9-(2,6-difluorophenyl)-7-methyl-3-pyridazin-3-yl-18-thia-2,4,5,8-tetrazatetracyclo[8.8.0.02,6.011,17]octadeca-1(10),3,5,8,11(17)-pentaene] | 4520 | 94.6 | 1.98 | 47.8 | 47.8 | 119 | 2.19 |  |  |  |  | 
C[C@@H]1N=C(c2c(F)cccc2F)c2c(sc3c2CCCCC3)-n2ccc(=O)nc21 [Example 7, (8S)-10-(2,6-difluorophenyl)-8-methyl-19-thia-2,6,9-triazatetracyclo[9.8.0.02,7.012,18]nonadeca-1(11),3,6,9,12(18)-pentaen-5-one] | 7690 | 205.1 | 2.31 | 37.5 | 37.5 | 169 | 2.69 |  |  |  |  | 
Cc1nnc2n1-c1sc3c(c1C(c1c(F)cccc1F)=N[C@H]2C)CCCC(F)(F)C3 [Example 8, (7S)-9-(2,6-difluorophenyl)-15,15-difluoro-3,7-dimethyl-18-thia-2,4,5,8-tetrazatetracyclo[8.8.0.02,6.011,17]octadeca-1(10),3,5,8,11(17)-pentaene] | 2760 | 53.8 | 1.73 | 51.3 | 51.3 | 203 | 3.03 |  |  |  |  | 
Cc1nnc2n1-c1sc3c(c1C(c1c(F)cccc1F)=NC2)CCCCO3 [Example 18, 9-(2,6-difluorophenyl)-3-methyl-16-oxa-18-thia-2,4,5,8-tetrazatetracyclo[8.8.0.02,6.011,17]octadeca-1(10),3,5,8,11(17)-pentaene] | 428 | 20.5 | 1.31 | 20.9 | 20.9 | 113 | 2.13 |  |  |  |  | 
Cc1nnc2n1-c1sc3c(c1C(c1c(F)cccc1F)=N[C@H]2C)CCCCO3 [Example 19, (7S)-9-(2,6-difluorophenyl)-3,7-dimethyl-16-oxa-18-thia-2,4,5,8-tetrazatetracyclo[8.8.0.02,6.011,17]octadeca-1(10),3,5,8,11(17)-pentaene] | 615 | 36.5 | 1.56 | 16.8 | 16.9 | 122 | 2.22 |  |  |  |  | 
Cc1nc2n(n1)-c1sc3c(c1C(c1c(F)cccc1F)=N[C@H]2C)CCCCC3 [Example 20, (7S)-9-(2,6-difluorophenyl)-4,7-dimethyl-18-thia-2,3,5,8-tetrazatetracyclo[8.8.0.02,6.011,17]octadeca-1(10),3,5,8,11(17)-pentaene] | 1280 | 101.9 | 2.01 | 12.6 | 12.6 | 76 | 1.76 |  |  |  |  | 
Cc1nnc2n1-c1sc3c(c1C(c1c(F)cccc1F)=N[C@H]2C)COCCO3 [Example 21, (7S)-9-(2,6-difluorophenyl)-3,7-dimethyl-13,16-dioxa-18-thia-2,4,5,8-tetrazatetracyclo[8.8.0.02,6.011,17]octadeca-1(10),3,5,8,11(17)-pentaene] | 1360 | 67.2 | 1.83 | 20.2 | 20.2 | 140 | 2.40 | 67.2 | 1.8 | 1360 | 20.2 | 
C[C@@H]1N=C(c2c(F)cccc2F)c2c(sc3c2COCCO3)-n2nc(C(=O)N3CCC3)nc21 [Example 22, azetidin-1-yl-[(7S)-9-(2,6-difluorophenyl)-7-methyl-13,16-dioxa-18-thia-2,3,5,8-tetrazatetracyclo[8.8.0.02,6.011,17]octadeca-1(10),3,5,8,11(17)-pentaen-4-yl]methanone] |  | 304.3 | 2.48 | 10 | 10 | 88 | 1.88 |  |  |  |  | 3040
[2H]C1([2H])OCc2c(sc3c2C(c2c(F)cccc2F)=N[C@@H](C)c2nc(C(=O)N4CCC4)nn2-3)OC1([2H])[2H] [Example 23, azetidin-1-yl-[(7S)-14,14,15,15-tetradeuterio-9-(2,6-difluorophenyl)-7-methyl-13,16-dioxa-18-thia-2,3,5,8-tetrazatetracyclo[8.8.0.02,6.011,17]octadeca-1(10),3,5,8,11(17)-pentaen-4-yl]methanone] |  | 1329.5 | 3.12 | 6.3 | 6.3 | 63 | 1.63 |  |  |  |  | 8420
C[C@@H]1N=C(c2c(F)cccc2F)c2c(sc3c2COCCO3)-n2nc(C(=O)N3CC(F)C3)nc21 [Example 24, (3-fluoroazetidin-1-yl)-[(7S)-9-(2,6-difluorophenyl)-7-methyl-13,16-dioxa-18-thia-2,3,5,8-tetrazatetracyclo[8.8.0.02,6.011,17]octadeca-1(10),3,5,8,11(17)-pentaen-4-yl]methanone] |  | 691.7 | 2.84 | 3.75 | 3.8 | 59 | 1.59 |  |  |  |  | 2600
C[C@@H]1N=C(c2c(F)cccc2F)c2c(sc3c2COCCO3)-n2nc(C(=O)NCCF)nc21 [Example 25, (7S)-9-(2,6-difluorophenyl)-N-(2-fluoroethyl)-7-methyl-13,16-dioxa-18-thia-2,3,5,8-tetrazatetracyclo[8.8.0.02,6.011,17]octadeca-1(10),3,5,8,11(17)-pentaene-4-carboxamide] |  | 75.4 | 1.88 | 29 | 29 | 99 | 1.99 |  |  |  |  | 2190
Cc1cn2c(nc1=O)[C@H](C)N=C(c1c(F)cccc1F)c1c-2sc2c1CCCCC2 [Example 26, (8S)-10-(2,6-difluorophenyl)-4,8-dimethyl-19-thia-2,6,9-triazatetracyclo[9.8.0.02,7.012,18]nonadeca-1(11),3,6,9,12(18)-pentaen-5-one] | 6040 | 188.9 | 2.28 | 32 | 32 | 109 | 2.09 |  |  |  |  | 
Cc1nnc2n1-c1sc3c(c1C(c1c(F)cccc1F)=N[C@H]2C)CC[C@@H](O)CC3 [Example 27, (7S,14R)-9-(2,6-difluorophenyl)-3,7-dimethyl-18-thia-2,4,5,8-tetrazatetracyclo[8.8.0.02,6.011,17]octadeca-1(10),3,5,8,11(17)-pentaen-14-ol] | 11400 | 266.4 | 2.43 | 42.8 | 42.8 | 77 | 1.77 |  |  |  |  | 
